According to PubChem BioAssay (NCI):
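Dose response: 5 concentrations. Exposure: 48 h. Format: 96-well plates. Endpoint: linear interpolation; highest concentration if not reached. GI50 marks 50% less growth. TGI: concentration producing complete growth inhibition.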

Legend:
Test in all cases: DTP human tumour cell line panel, 48 h
CCRF-CEM leukemia = test system: CCRF-CEM leukemia
SR leukemia = test system: SR leukemia
NCI-H522 lung = test system: NCI-H522 lung
HOP-62 NSCLC = test system: HOP-62 NSCLC
SW-620 colon = test system: SW-620 colon
SK-MEL-28 melanoma = test system: SK-MEL-28 melanoma
ACHN renal = test system: ACHN renal
UO-31 renal = test system: UO-31 renal
SK-OV-3 ovarian = test system: SK-OV-3 ovarian
HS 578T breast = test system: HS 578T breast

| Compound | GI50 (CCRF-CEM leukemia) [µM] | TGI (CCRF-CEM leukemia) [µM] | GI50 (SR leukemia) [µM] | TGI (SR leukemia) [µM] | GI50 (NCI-H522 lung) [µM] | TGI (NCI-H522 lung) [µM] | GI50 (HOP-62 NSCLC) [µM] | TGI (HOP-62 NSCLC) [µM] | GI50 (SW-620 colon) [µM] | TGI (SW-620 colon) [µM] | GI50 (SK-MEL-28 melanoma) [µM] | TGI (SK-MEL-28 melanoma) [µM] | GI50 (ACHN renal) [µM] | TGI (ACHN renal) [µM] | TGI (UO-31 renal) [µM] | TGI (SK-OV-3 ovarian) [µM] | GI50 (HS 578T breast) [µM] | TGI (HS 578T breast) [µM] | GI50 (UO-31 renal) [µM] | GI50 (SK-OV-3 ovarian) [µM] |
| --- | --- | --- | --- | --- | --- | --- | --- | --- | --- | --- | --- | --- | --- | --- | --- | --- | --- | --- | --- | --- |
| O=Cc1ccc(-c2ccc(-c3nc4ccccc4[nH]3)cc2)s1 | 14 | 38.9 | 15.6 | 98.7 | 26.3 | > 100 | 16.1 | 41.1 | 59.4 | > 100 | 47.7 | > 100 | 24.4 | 67.1 |  |  |  |  |  |  |
| CC(C)N(C(=O)C1(C)CC1)C(C)C |  | > 100 |  |  |  | > 100 |  | > 100 |  | > 100 |  | > 100 |  | > 100 | > 100 | > 100 |  |  |  |  |
| Cc1ccc(S(=O)(=O)Oc2ccc([N+](=O)[O-])cc2[N+](=O)[O-])cc1 | 0.6 | 15.7 |  |  |  |  | 13.6 | 30.5 | 4.04 | 24.9 | 13 | 26.4 | 7.64 | 22.5 | 9.26 | 91.3 | 21.5 | > 100 | 2.48 | 9.4 |
| O=C1Nc2cc(Cl)ccc2N=CC1NC(=O)C(c1ccccc1)c1ccccc1Cl (stereo not given) |  | > 100 |  |  |  | > 100 |  | > 100 |  | > 100 |  | > 100 |  | > 100 | > 100 | > 100 |  |  |  |  |
| Cc1nnc(N=Nc2c(O)[nH]c3c(Cl)cc(Cl)cc23)n1N |  | > 100 |  | > 100 |  | > 100 |  | > 100 |  | > 100 |  | > 100 |  | > 100 | > 100 | > 100 |  |  |  |  |
| C#Cc1c(C)c(/C=C/C(C)=C/C=C/C(C)=C/C(=O)OC)n(C)c1C |  | > 100 |  | > 100 |  | > 100 |  | > 100 |  | > 100 |  | > 100 |  | > 100 | > 100 | > 100 |  |  |  |  |
| COc1ccc(/C=C/C(=O)C(C)(C)CN2CCCCC2)cc1 |  | 60.6 |  |  |  | 30 |  | > 100 |  | 14.2 |  | 65.9 |  | 60.1 | 41.3 | 61.7 |  |  |  |  |
| COc1cccc(NC(=O)C(C)(C)C)c1C=O |  | > 100 |  | > 100 |  | > 100 |  | > 100 |  | > 100 |  | > 100 |  | > 100 | 77.3 | > 100 |  |  |  |  |
| CN(C)c1ncnc2c1Cc1ccccc1C(=O)N2C |  | > 100 |  | > 100 |  | > 100 |  | > 100 |  | > 100 |  | > 100 |  | > 100 | > 100 | > 100 |  |  |  |  |
| C=CCCOC(=O)CO[N+](=O)[O-] |  | > 100 |  | > 100 |  | > 100 |  | > 100 |  | > 100 |  | > 100 |  | > 100 | > 100 | > 100 |  |  |  |  |
| N.N.N.N.O=NN1CCCCCC1(P(=O)([O-])[O-])P(=O)([O-])[O-].[Pt+4].[Pt+4] | > 100 | > 100 |  |  | > 100 | > 100 | > 100 | > 100 | > 100 | > 100 | > 100 | > 100 | > 100 | > 100 | > 100 | > 100 |  |  | > 100 | > 100 |
